Where two headings read alike, the source gives them in different places.
Key:
[1] = Human liver microsomal stability; assay type: in vitro ADME; settings: liver microsomes, pH 7.4; human liver microsome; read-out: HLM Clint
Description: The metabolic stability of the compounds was evaluated in human (pool of 200 donors, XenoTech) and mouse liver microsomes (CD1 mouse, GIBCO). Test compounds were prepared at a concentration of 0.5 μM and incubated with 0.25 mg/mL liver microsomes at pH 7.4 and 37°C. The reaction was started by addition of NADPH at […]. Samples were taken at 0, 5, 10, 15, 20 and 30 minutes. The reaction was stopped by the addition of acetonitrile:methanol (1:1) containing an internal standard (tolbutamide at 50 nM). Compounds were quantified by liquid chromatography triple quadrupole mass spectrometry (LC-MS/MS). Peak area ratios (analyte/internal standard) were converted to % remaining using the area ratio at time 0 as 100%. Half-life (t1/2 = ln(2)/k) in minutes and intrinsic clearance (Clint = k x 1000/(0.25)) in μL/min/mg were calculated using a non-linear regression from % remaining versus incubation time. From this plot, the slope (k) was determined. The analysis conditions were: analytical column (Gemini C18, […], Phenomenex), electrospray ionization source (ESI) in positive and negative mode, mobile phase A (water + 0.1% formic acid) and B (acetonitrile + 0.1% formic acid), flow rate of 0.7 mL/min.

Plasma protein binding = assay type: in vitro ADME; settings: mouse, pH 7.4, % bound, read-out: Mouse PPB (converted)
Description: For plasma protein binding, pooled plasma was thawed in a water bath at 37°C and centrifuged at 4,000 rpm for 5 min to remove any clots. The pH value was measured and adjusted to 7.4, if necessary. RPMI medium (pH 7.4) supplemented with 10% fetal calf serum was used. Working solutions (400 μM) of test compounds were prepared by diluting appropriate volume of the stock solutions with DMSO. Working solutions (400 μM) were spiked into plasma to achieve 2 μM final concentrations as loading solutions. The concentration of organic solvent in the final solutions was 0.5% DMSO. The dialysis instrument was assembled following manufacturer’s instructions. Aliquots of loading solution were loaded in triplicate to the donor side of each dialysis well and dialyzed against an equal volume of dialysis buffer. The plate was shaken and incubated for 6 hours in a humidified incubator with 5% CO2 at 37°C. At the end of dialysis, aliquots of dialysate and retentate were removed into sample collection plates. Each sample was matched with an opposite blank buffer or plasma, with a ratio of matrix:dialysis buffer of 50:50 (v:v) in each well and participated with 500μL of stop solution (50% acetonitrile/methanol; internal standards—200 ng/mL tolbutamide, labetalol and 50 ng/mL metformin). All sample collection plates were rotated at 800 rpm for 5 min to mix samples and centrifuged at 20°C, 4000 rpm for 20 min. Aliquots of supernatant of all the samples were removed and injected into LC-MS/MS. Results were calculated as the percentage of remaining parent compound in plasma or medium after incubation.

[2] = Mouse single-dose pharmacokinetics; assay type: in vivo; settings: for free plasma concentration (corrected by PPB) versus in vitro IC50 (corrected for medium binding): after single oral dosing
Description: Compounds were administered to groups (n = 6) of female BALB/c mice via single intravenous dosing (at 2 mg/kg) or single oral dosing (at 50 mg/kg) employing a solution/suspension vehicle comprising of 10% ethanol, 40% PEG400 and 0.4% Tween80 in saline buffer (pH adjusted to 9). Samples derived from plasma (at 0.083 for iv only, 0.25, 1, 2, 4, 8 and 24 h) were quantified by LC−MS/MS. Data analysis and calculation of pharmacokinetic parameters was performed using Phoenix WinNonlin version 7.0.

[3] = system: L. infantum (MHOM/BR/2005/NLC) strain expressing luciferase; assay type: in vivo, Leishmania infantum; settings: 25 mg/kg/day oral
Description: Groups of female BALB/c mice (n = 5) were infected with 10^8 stationary phase promastigotes of L. infantum chagasi-LUC in a final volume of 100 μL by the intraperitoneal route. At day 14 post-infection, groups were orally treated for 5 days with either drug vehicle only (10% ethanol, 40% PEG400 and 0.4% Tween80 in saline buffer—pH adjusted to 9), miltefosine (40 mg/kg QD) or with compounds 29 and 39 (25 mg/kg QD). Light emission in the ventral abdominal cavity of infected animals was recorded by bioimaging (IVIS Spectrum, Caliper Life Sciences) on 14, 19- and 24-days post-infection. Before imaging, mice received 75 mg/kg VivoGlo™ Luciferin (Promega Corporation) (i.p.) and were anesthetized in a 2% isoflurane atmosphere (Cristália). Animals were then transferred to the imaging chamber and kept in a 2% isoflurane atmosphere. Emitted photons were collected using the high resolution (medium binning) mode. Total photon emission from a defined region of interest (ROI) corresponding to the whole abdominal area was registered. The same ROI was applied to all animals in any given group. Images were acquired 15 min after luciferin injection. Total photon emission from each mouse was quantified with Living Image software version 4.3.1 (Caliper Life Sciences), and results were expressed as the number of photons/s/ROI subtracted from the corresponding ROI in uninfected animals. The detected signal was presented as a pseudocolor image representing light intensity (red = most intense and blue = least intense) and superimposed on the gray scale reference image.

[4] = system: L. guyanensis MHOM/PE/02/PER 054/0; assay: VL/CL panel, intracellular amastigotes; assay type: cell-based; settings: Leishmania guyanensis; average; read-out: IC-50 L. guyanensis MHOM/PE/02/PER 054/0
Description: (§1) For the antileishmania in vitro assays, 3×10^4 PMM/well were seeded in 96-well plates. After 24h, 5×10^5 amastigotes/well were added and incubated for 2h at 37°C. Next, the compounds in 4-fold serial dilutions were added and the plates were further incubated for 5 days (37°C, 5% CO2). Parasite burdens were assessed using an inverted microscope after Giemsa staining. The results were expressed as percent reduction in parasite burdens compared to negative control wells (100% growth) and IC50 values were determined. Values represent the geometric mean of at least two independent experiments. Miltefosine was used as the positive control in all plates.

[5] = system: L. infantum LEM3323-cl4 MIL; assay: VL/CL panel, intracellular amastigotes; assay type: cell-based; settings: Leishmania infantum, read-out: IC-50 L. infantum LEM3323-cl4 MIL
Description: as §1

[6] = system: L. infantum LEM3323-cl4 PMM; assay: VL/CL panel, intracellular amastigotes; assay type: cell-based; settings: Leishmania infantum, read-out: IC-50 L. infantum LEM3323-cl4 PMM
Description: as §1

[7] = system: L. major MHOM/SA/85/JISH118; assay: VL/CL panel, intracellular amastigotes; assay type: cell-based; settings: Leishmania major; average; read-out: IC-50 L. major MHOM/SA/85/JISH118
Description: as §1

[8] = system: L. tropica MHOM/AF/2015/HTD7; assay: VL/CL panel, intracellular amastigotes; assay type: cell-based; settings: Leishmania tropica; average; read-out: IC-50 L. tropica MHOM/AF/2015/HTD7
Description: as §1

[9] = female, BALB/c, plasma, single oral dose 50 mg/kg
[10] = female, BALB/c, plasma, single oral dose 50 mg/kg, read-out: Cmax

Cn1nccc1C(=O)Nc1nc2ccc(C#N)cc2n1CC(C)(C)C [Compound 29, O=C(Nc1n(CC(C)(C)C)c(c2n1)cc(C#N)cc2)c3n(C)ncc3]
microsomal CLint at 0.5 μM [1]: 25 µL/min/mg
fraction unbound at 6 h, 2 μM (Plasma protein binding): 0.029
higher AUClast, 50 vs 10 mg/kg oral [2]: approximately 4 fold
increase in Cmax, 50 vs 10 mg/kg oral [2]: 2 fold
free plasma concentration (corrected by PPB) versus in vitro IC50 (corrected for medium binding) [2]: below the in vitro IC50
clearance ([2]; female, BALB/c, plasma, 2 mg/kg IV): 9 mL/min/kg
AUC(0-t) [2, 9]: 35400 ng·h/mL
bioavailability [2, 9]: 37%
Cmax [2, 10]: 2000 ng/mL
toxicity in infected mice [3]: one animal was euthanized due to severe clinical signs of distress
parasite load (bioluminescence) ([3]; 5 days, end of treatment or washout): no decrease in parasite load
IC50 [4]: 0.55 µM
IC50 [5]: 2.16 µM
IC50 [6]: 1.62 µM
IC50 [7]: 8.64 µM
IC50 [8]: 2.85 µM

Cn1nccc1C(=O)Nc1nc2ccc(C#N)cc2n1CC(F)(F)F [Compound 30, O=C(c1ccnn1C)Nc2nc(ccc(C#N)c3)c3n2CC(F)(F)F]
microsomal CLint at 0.5 μM [1]: 17 µL/min/mg
fraction unbound at 6 h, 2 μM (Plasma protein binding): 0.042
AUC(0-t) [2, 9]: 25200 ng·h/mL
half-life [2, 9]: 6.8 h
Cmax [2, 10]: 2000 ng/mL

Cn1nc(C(F)(F)F)cc1C(=O)Nc1nc2ccc(C#N)cc2n1CC(F)(F)F [Compound 39, O=C(c1cc(C(F)(F)F)nn1C)Nc2nc(ccc(C#N)c3)c3n2CC(F)(F)F]
microsomal CLint at 0.5 μM [1]: 20 µL/min/mg
fraction unbound at 6 h, 2 μM (Plasma protein binding): 0.006
free plasma concentration (corrected by PPB) versus in vitro IC50 (corrected for medium binding) [2]: up to four times above the free IC50
Cmax ([2]; female, BALB/c, plasma, single 50 mg/kg oral dose, read-out: total Cmax): ~17 µM
AUC(0-t) [2, 9]: 63700 ng·h/mL
half-life [2, 9]: 8 h
Cmax [2, 10]: 7300 ng/mL
exposure (AUClast) compared to 29 at the same dose ([2]; oral 50 mg/kg): 2 fold
toxicity in infected mice [3]: severe toxic effects
IC50 [4]: 1.08 µM
IC50 [5]: 4.16 µM
IC50 [6]: 3.21 µM
IC50 [7]: 17 µM
IC50 [8]: 5.9 µM

N#Cc1ccc2nc(NC(=O)c3ccnc(C(F)(F)F)c3)n(CC(F)(F)F)c2c1 [Compound 44, O=C(c1ccnc(C(F)(F)F)c1)Nc2nc(ccc(C#N)c3)c3n2CC(F)(F)F]
microsomal CLint at 0.5 μM [1]: 30 µL/min/mg
fraction unbound at 6 h, 2 μM (Plasma protein binding): 0.008
